The data set in a line: recombinant UMI read abundance after kanamycin selection (control-corrected) (log10(CPM+1)); higher = more efficient recombination; extreme values may be limits of the assay; sequences stand for … in AGTGCAGAGAAAATCGGCCAGTTTTCTCTGCCTGCAGTCCGCATGCCGTGGGACCCCTTGGGTTCTAACCTGTTGCCTAGATTTATGCAGCGGACTGCCTTTCTCCCAAAGTGATAAACCGG…AGGTTGGTTTCACT; site = the 11-nt donor. In short, it runs like this: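 For the IS621 bridge recombinase, a pooled Escherichia coli screen tested donor and donor-binding-loop pairs. Cells received the pair library together with a target plasmid encoding a fixed target and T7-inducible recombinase, then went onto IPTG (0.07 mM) plus kanamycin or unselected plates in duplicate. After PCR across the donor–target junction and sequencing, recombinant UMI counts were normalized to CPM, averaged, and scaled by control-derived factors. Each value is given as log10(CPM+1).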

68 sequences from the supplement of paper PMC11208160 can be followed below.
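Note: IS621 bridge recombinase in Escherichia coli cells against a fixed T5 target plasmid.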

Consider “TAACGAGCATGGACCGGTTTTCCCGGTAATCCGTATTTGGG (site TAACGAGCTCC)”, for which the “recombinant UMI read abundance (log10)” value came out at 0.146.

“TAACGAGCATGGACCGGTTTTCCCGGTAATCCGTATTTGGG (site TAAGGAGCTCC)”: the “recombinant UMI read abundance (log10)” value came out at 0.143.

On to “TAACGAGCATGGACCGGTTTTCCCGGTAATCCGTATTTGGG (site TAATGAGCTCC)”, for which the “recombinant UMI read abundance (log10)” value was 0.0081.

“TAACGCACATGGACCGGTTTTCCCGGTAATCCGTATTTGGT (site TAACGCACTAC)”: the “recombinant UMI read abundance (log10)” value worked out at 0.736.

For the sequence “TAACGGTCATGGACCGGTTTTCCCGGTAATCCGTATTTGGC (site TAACGGTCTGC)”, the “recombinant UMI read abundance (log10)” value is 2.67.

For the sequence “TAACGTTCATGGACCGGTTTTCCCGGTAATCCGTATTTGTA (site TAACGTTCTTA)”, the “recombinant UMI read abundance (log10)” value was found to be 1.16.

As for “TAAGCACCATGGACCGGTTTTCCCGGTAATCCGTATTTGAA (site TAAGCACCTTT)”, the “recombinant UMI read abundance (log10)” value was determined as 0.0176.

“TAAGCCACATGGACCGGTTTTCCCGGTAATCCGTATTTGAC (site TAAGCCACTGT)”: the “recombinant UMI read abundance (log10)” value is 2.78.

“TAAGCCGCATGGACCGGTTTTCCCGGTAATCCGTATTTGGG (site TAAGCCGCTCC)”: the “recombinant UMI read abundance (log10)” value came to 0.0145.

For the sequence “TAAGCGCCATGGACCGGTTTTCCCGGTAATCCGTATTTGTG (site AAAGCGCCTCA)”, the “recombinant UMI read abundance (log10)” value was determined as 0.0246.

Take “TAAGCGCCATGGACCGGTTTTCCCGGTAATCCGTATTTGTG (site CAAGCGCCTCA)”: the “recombinant UMI read abundance (log10)” value is 0.0975.

Regarding “TAAGCGCCATGGACCGGTTTTCCCGGTAATCCGTATTTGTG (site GAAGCGCCTCA)”, the “recombinant UMI read abundance (log10)” value amounted to 0.032.

Take “TAAGCGCCATGGACCGGTTTTCCCGGTAATCCGTATTTGTG (site TAAGCGCCTCA)”: the “recombinant UMI read abundance (log10)” value worked out at 0.248.

Regarding “TAAGCTCCATGGACCGGTTTTCCCGGTAATCCGTATTTGCG (site TAAGCTCCTCG)”, the “recombinant UMI read abundance (log10)” value was 0.303.

As to “TAAGGGGCATGGACCGGTTTTCCCGGTAATCCGTATTTGGC (site TAAGGGGCTGC)”, the “recombinant UMI read abundance (log10)” value worked out at 2.41.

For “TAAGTGTCATGGACCGGTTTTCCCGGTAATCCGTATTTGCA (site TAAGTGTCTTG)”, the “recombinant UMI read abundance (log10)” value came to 3.32.

In the case of “TAATACTCATGGACCGGTTTTCCCGGTAATCCGTATTTGCA (site TAATACTCTTG)”, the “recombinant UMI read abundance (log10)” value amounted to 2.63.

As to “TAATACTCATGGACCGGTTTTCCCGGTAATCCGTATTTGCA (site TCATACTCTTG)”, the “recombinant UMI read abundance (log10)” value is 1.69.

As to “TAATACTCATGGACCGGTTTTCCCGGTAATCCGTATTTGCA (site TGATACTCTTG)”, the “recombinant UMI read abundance (log10)” value was 1.6.

As to “TAATACTCATGGACCGGTTTTCCCGGTAATCCGTATTTGCA (site TTATACTCTTG)”, the “recombinant UMI read abundance (log10)” value was found to be 1.68.

Take “TAATAGACATGGACCGGTTTTCCCGGTAATCCGTATTTGGC (site TAATAGACTGC)”: the “recombinant UMI read abundance (log10)” value came to 2.02.

As for “TAATCAGCATGGACCGGTTTTCCCGGTAATCCGTATTTGGG (site TAATAAGCTCC)”, the “recombinant UMI read abundance (log10)” value stood at 0.00976.

“TAATCAGCATGGACCGGTTTTCCCGGTAATCCGTATTTGGG (site TAATCAGCTCC)”: the “recombinant UMI read abundance (log10)” value turned out to be 0.0129.

Consider “TAATCAGCATGGACCGGTTTTCCCGGTAATCCGTATTTGGG (site TAATGAGCTCC)”, for which the “recombinant UMI read abundance (log10)” value came out at 0.00426.

For “TAATCAGCATGGACCGGTTTTCCCGGTAATCCGTATTTGGG (site TAATTAGCTCC)”, the “recombinant UMI read abundance (log10)” value was 0.0124.

For “TAATGAGCATGGACCGGTTTTCCCGGTAATCCGTATTTGGT (site TAATGAGCTAC)”, the “recombinant UMI read abundance (log10)” value worked out at 0.862.

As to “TAATGAGCATGGACCGGTTTTCCCGGTAATCCGTATTTGGT (site TAATGAGCTCC)”, the “recombinant UMI read abundance (log10)” value turned out to be 0.00749.

“TAATGAGCATGGACCGGTTTTCCCGGTAATCCGTATTTGGT (site TAATGAGCTGC)”: the “recombinant UMI read abundance (log10)” value amounted to 0.

For the sequence “TAATGAGCATGGACCGGTTTTCCCGGTAATCCGTATTTGGT (site TAATGAGCTTC)”, the “recombinant UMI read abundance (log10)” value worked out at 0.0263.

Consider “TAATGATCATGGACCGGTTTTCCCGGTAATCCGTATTTGGG (site TAATGAACTCC)”, for which the “recombinant UMI read abundance (log10)” value is 0.0159.

On to “TAATGATCATGGACCGGTTTTCCCGGTAATCCGTATTTGGG (site TAATGACCTCC)”, for which the “recombinant UMI read abundance (log10)” value was 0.00916.

On to “TAATGATCATGGACCGGTTTTCCCGGTAATCCGTATTTGGG (site TAATGAGCTCC)”, for which the “recombinant UMI read abundance (log10)” value is 0.0135.

With “TAATGATCATGGACCGGTTTTCCCGGTAATCCGTATTTGGG (site TAATGATCTCC)”, the “recombinant UMI read abundance (log10)” value worked out at 0.594.

With “TAATGGGCATGGACCGGTTTTCCCGGTAATCCGTATTTGGG (site TAATGAGCTCC)”, the “recombinant UMI read abundance (log10)” value is 0.0138.

In the case of “TAATGGGCATGGACCGGTTTTCCCGGTAATCCGTATTTGGG (site TAATGCGCTCC)”, the “recombinant UMI read abundance (log10)” value amounted to 0.0166.

In the case of “TAATGGGCATGGACCGGTTTTCCCGGTAATCCGTATTTGGG (site TAATGGGCTCC)”, the “recombinant UMI read abundance (log10)” value came out at 0.0225.

As for “TAATGGGCATGGACCGGTTTTCCCGGTAATCCGTATTTGGG (site TAATGTGCTCC)”, the “recombinant UMI read abundance (log10)” value was found to be 0.0203.

“TAATTAACATGGACCGGTTTTCCCGGTAATCCGTATTTGGT (site TAATTAACTAC)”: the “recombinant UMI read abundance (log10)” value stood at 0.813.

As for “TAATTCCCATGGACCGGTTTTCCCGGTAATCCGTATTTGCT (site AAATTCCCTAG)”, the “recombinant UMI read abundance (log10)” value amounted to 0.531.

Take “TAATTCCCATGGACCGGTTTTCCCGGTAATCCGTATTTGCT (site CAATTCCCTAG)”: the “recombinant UMI read abundance (log10)” value is 0.55.

“TAATTCCCATGGACCGGTTTTCCCGGTAATCCGTATTTGCT (site GAATTCCCTAG)”: the “recombinant UMI read abundance (log10)” value was found to be 1.7.

Consider “TAATTCCCATGGACCGGTTTTCCCGGTAATCCGTATTTGCT (site TAATTCCCTAG)”, for which the “recombinant UMI read abundance (log10)” value was found to be 1.65.

In the case of “TACACCGCATGGACCGGTTTTCCCGGTAATCCGTATTTGAG (site TACACCGCTCT)”, the “recombinant UMI read abundance (log10)” value was 0.702.

“TACACCGCATGGACCGGTTTTCCCGGTAATCCGTATTTGCG (site TACACCGCTCG)”: the “recombinant UMI read abundance (log10)” value turned out to be 0.0108.

As to “TACACCGCATGGACCGGTTTTCCCGGTAATCCGTATTTGCG (site TCCACCGCTCG)”, the “recombinant UMI read abundance (log10)” value is 0.

Consider “TACACCGCATGGACCGGTTTTCCCGGTAATCCGTATTTGCG (site TGCACCGCTCG)”, for which the “recombinant UMI read abundance (log10)” value came to 0.0236.

Turning to “TACACCGCATGGACCGGTTTTCCCGGTAATCCGTATTTGCG (site TTCACCGCTCG)”, the “recombinant UMI read abundance (log10)” value was determined as 0.00838.

With “TACAGCTCATGGACCGGTTTTCCCGGTAATCCGTATTTGGA (site TACAGCTCTTC)”, the “recombinant UMI read abundance (log10)” value was 0.841.

Take “TACAGTCCATGGACCGGTTTTCCCGGTAATCCGTATTTGTA (site TAAAGTCCTTA)”: the “recombinant UMI read abundance (log10)” value is 0.

“TACAGTCCATGGACCGGTTTTCCCGGTAATCCGTATTTGTA (site TACAGTCCTTA)”: the “recombinant UMI read abundance (log10)” value stood at 0.128.

Regarding “TACAGTCCATGGACCGGTTTTCCCGGTAATCCGTATTTGTA (site TAGAGTCCTTA)”, the “recombinant UMI read abundance (log10)” value is 0.198.

As to “TACAGTCCATGGACCGGTTTTCCCGGTAATCCGTATTTGTA (site TATAGTCCTTA)”, the “recombinant UMI read abundance (log10)” value is 0.00977.

As to “TACAGTTCATGGACCGGTTTTCCCGGTAATCCGTATTTGAG (site TACAGTTCTCT)”, the “recombinant UMI read abundance (log10)” value came out at 1.31.

For the sequence “TACATAACATGGACCGGTTTTCCCGGTAATCCGTATTTGCA (site TACATAACTTG)”, the “recombinant UMI read abundance (log10)” value worked out at 0.258.

As to “TACATATCATGGACCGGTTTTCCCGGTAATCCGTATTTGGG (site TACATATCTCC)”, the “recombinant UMI read abundance (log10)” value came to 0.

On to “TACATGACATGGACCGGTTTTCCCGGTAATCCGTATTTGGT (site TACATGACTAC)”, for which the “recombinant UMI read abundance (log10)” value worked out at 0.581.

In the case of “TACCACCCATGGACCGGTTTTCCCGGTAATCCGTATTTGAC (site TACCACCCTGT)”, the “recombinant UMI read abundance (log10)” value stood at 0.

Consider “TACCCAGCATGGACCGGTTTTCCCGGTAATCCGTATTTGCT (site TACCCAGCTAG)”, for which the “recombinant UMI read abundance (log10)” value worked out at 0.0305.

For “TACCCATCATGGACCGGTTTTCCCGGTAATCCGTATTTGAG (site TACCCATCTCT)”, the “recombinant UMI read abundance (log10)” value was 0.374.

In the case of “TACCCCTCATGGACCGGTTTTCCCGGTAATCCGTATTTGGC (site TACCCCTCTGC)”, the “recombinant UMI read abundance (log10)” value was 3.09.

For the sequence “TACCCGTCATGGACCGGTTTTCCCGGTAATCCGTATTTGCT (site TACCCGTCTAG)”, the “recombinant UMI read abundance (log10)” value was 2.07.

In the case of “TACCGTCCATGGACCGGTTTTCCCGGTAATCCGTATTTGAT (site AACCGTCCTAT)”, the “recombinant UMI read abundance (log10)” value turned out to be 0.0188.

“TACCGTCCATGGACCGGTTTTCCCGGTAATCCGTATTTGAT (site CACCGTCCTAT)”: the “recombinant UMI read abundance (log10)” value was 0.00852.

Consider “TACCGTCCATGGACCGGTTTTCCCGGTAATCCGTATTTGAT (site GACCGTCCTAT)”, for which the “recombinant UMI read abundance (log10)” value came out at 0.00523.

For “TACCGTCCATGGACCGGTTTTCCCGGTAATCCGTATTTGAT (site TACCGTCCTAT)”, the “recombinant UMI read abundance (log10)” value turned out to be 0.00444.

“TACCTACCATGGACCGGTTTTCCCGGTAATCCGTATTTGAG (site TACCTACCTCT)”: the “recombinant UMI read abundance (log10)” value is 0.0115.

As for “TACCTGACATGGACCGGTTTTCCCGGTAATCCGTATTTGGC (site TACCTGACTGC)”, the “recombinant UMI read abundance (log10)” value amounted to 0.

As for “TACGAATCATGGACCGGTTTTCCCGGTAATCCGTATTTGCG (site TAAGAATCTCG)”, the “recombinant UMI read abundance (log10)” value amounted to 0.
